Holding throughout (assay type): in vivo
The test system of assay [1] is Venturia inaequalis. The experiment in a line: Venturia test (apple)/protective. The note with it: 240 h, protective spray, evaluation 10 days after inoculation, read-out: Efficacy (%). As for the experimental part: Venturia Test (Apple)/Protective
Solvents: 24.5 parts by weight of acetone
• 24.5 parts by weight of dimethylacetamide Emulsifier: 1 part by weight of alkylaryl polyglycol ether
To produce a suitable preparation of active compound, 1 part by weight of active compound is mixed with the stated amounts of solvent and emulsifier, and the concentrate is diluted with water to the desired concentration. To test for protective activity, young plants are sprayed with the preparation of active compound at the stated application rate. After the spray coating has dried on, the plants are inoculated with an aqueous conidia suspension of the apple scab pathogen Venturia inaequalis and then remain in an incubation cabin at approx. 20° C. and 100% relative air humidity for 1 day. The plants are then placed in the greenhouse at about 21° C. and a relative atmospheric humidity of about 90%. Evaluation follows 10 days after the inoculation. 0% means an efficacy which corresponds to that of the control, whereas an efficacy of 100% means that no infection is observed.
In this test, the following compounds according to the invention show, at an active compound concentration of 100 ppm, an efficacy of 70% or more: […]

Assay [2] deals with Pyrenophora teres. Briefly: Pyrenophora teres test (barley)/protective. The note with it: protective spray, evaluation 7-9 days after inoculation. As for the experimental part: Pyrenophora teres Test (Barley)/Protective
(§1) Solvent: 49 parts by weight of N,N-dimethylacetamide
(§2) Emulsifier: 1 part by weight of alkylaryl polyglycol ether
(§3) To produce a suitable preparation of active compound, 1 part by weight of active compound is mixed with the stated amounts of solvent and emulsifier, and the concentrate is diluted with water to the desired concentration. To test for protective activity, young plants are sprayed with the preparation of active compound at the stated application rate. 1 day after this treatment, the plants are inoculated with an aqueous spore suspension of Pyrenophora teres. The plants remain in an incubation cabin at 20° C. and 100% relative atmospheric humidity for 48 hours. The plants are placed in a greenhouse at a temperature of about 20° C. and a relative atmospheric humidity of about 80%. Evaluation is carried out 7-9 days after the inoculation. 0% means an efficacy which corresponds to that of the control, whereas an efficacy of 100% means that no infection is observed.

Assay [3] concerns Puccinia triticina. The experiment in a line: Puccinia triticina test (wheat)/protective. To be noted: 192 h, protective spray, evaluation 8 days after inoculation, read-out: Efficacy (%). As for the experimental part: Puccinia triticina Test (Wheat)/Protective
as §1, §2
as §3, with “After the spray coating has dried on,” for “1 day after this treatment,”, “sprayed” for “inoculated”, “spores with a” for “an aqueous”, “Puccinia triticina.” for “Pyrenophora teres.”, “follows 8” for “is carried out 7-9”
In this test, the following compounds according to the invention show, at an active compound concentration of 500 ppm, an efficacy of 70% or more: […]

Assay [4] deals with Sphaerotheca fuliginea. The experiment in a line: Sphaerotheca test (cucumber)/protective. To be noted: Podosphaera fuliginea, 168 h, cucumber plants, protective spray, evaluation 7 days after inoculation, read-out: Efficacy (%). As for the experimental part:
Sphaerotheca Test (Cucumber)/Protective
Solvent: 49 parts by weight of N,N-dimethylformamide
as §2
To produce a suitable preparation of active compound, 1 part by weight of active compound is mixed with the stated amounts of solvent and emulsifier, and the concentrate is diluted with water to the desired concentration. To test for protective activity, young cucumber plants are sprayed with the preparation of active compound at the stated application rate. 1 day after the treatment, the plants are inoculated with a spore suspension of Sphaerotheca fuliginea. The plants are then placed in a greenhouse at 70% relative air humidity and a temperature of 23° C. Evaluation follows 7 days after the inoculation. 0% means an efficacy which corresponds to that of the control, whereas an efficacy of 100% means that no infection is observed. In this test, the following compounds according to the invention show, at an active compound concentration of 500 ppm, an efficacy of 70% or more: […]

Turning to `CC(C)C(O)(COc1ccc(OC(F)(F)F)cc1)c1cncnc1` (stereo not shown) [Compound 2], the pest or weed control at 100 ppm in assay [1] was 94%. The “Efficacy (%)” value in assay [2] (100 ppm) and in assay [2] (500 ppm) was 0% each time. Moreover, the pest or weed control at 500 ppm in assay [3] is 100%; in assay [4], 99%.

Regarding `CC(C)(C)C(O)(COc1ccc(OC(F)(F)F)cc1)c1cncnc1` (stereo not shown) [Compound 12], the pest or weed control at 100 ppm in assay [1] came to 99%. The “Efficacy (%)” value is on record as 60% in assay [2] (100 ppm) and 95% in assay [2] (500 ppm). Moreover, the pest or weed control at 500 ppm in assay [3] and in assay [4] was 100% each time.

Consider `CC(C)(C)C(O)(COc1ccc(SC(F)(F)F)cc1)c1cncnc1` (stereo not shown) [Compound 17], for which the pest or weed control at 100 ppm in assay [1] is 100%. The pest or weed control at 500 ppm in assay [3] was 100%; in assay [4], 95%.

As for `CC1(C(O)(COc2ccc(OC(F)(F)F)cc2)c2cncnc2)CC1` (stereo not shown) [Compound 18], in assay [1], the pest or weed control at 100 ppm was 99%. Also, the results for the pest or weed control at 500 ppm in assay [3] and in assay [4] were 100% and 95%, respectively.

(Values after US9241487B2, “Pyrimidine derivatives and use thereof as pesticides” (BAYER INTELLECTUAL PROPERTY GMBH, priority 2010, dated 2016).)
